Source: article PMC9016025, “Translational imaging of the fibroblast activation protein (FAP) using the new ligand [^68Ga]Ga-OncoFAP-DOTAGA” (European Journal of Nuclear Medicine and Molecular Imaging, 2021)

Tested on: subcutaneous HT1080 (FAP−) and HT1080-hFAP (FAP+) tumors
Assay: Pharmacokinetic modeling (2TCM, Patlak) of small animal PET with extracorporeal arterial input function
Assay type: in vivo, mouse
Set-up: Vs (distribution volume) / k1 / k2 / k3 / k4: unit not given here
Conditions: geometric mean ± SD; for Vs (distribution volume) / k1 / k2 / k3 / k3/k4 / k4: 2TCM
Experimental: Before PET/MRI at day 12, p.i. mice received surgery to establish an extracorporeal circulation shunting of the blood from the femoral artery to the tail vein or contralateral femoral vein as described previously. At 40 cm from the femoral artery, the shunt (0.3 mm inner diameter silicon; total extracorporeal volume 56.6 μL) was led through a Twilite coincidence detector. Acquired blood activity curves were calibrated with a separately measured calibration factor for ^68Ga according to vendor’s instructions. The curves were corrected for delay and dispersion based on a numerical deconvolution, using dispersion kernels derived from measuring step functions at defined pumping speeds. Standard 2-tissue compartmental (2TCM) pharmacokinetic (PK) modeling and Patlak analysis was performed for the triceps muscle, and FAP^− and FAP^+ tumors using PMOD version 3.703 (PMOD Technologies LLC) and was based on mean PET VOI time activity curves and Twilite-based extracorporeal arterial input functions (AIF). AIF plasma fraction was calculated based on direct hematocrit measurements after imaging (StatStrip® Hb/Hct, Nova Biomedical).

**Q.** How did the “Vs (distribution volume)” value (tumor FAP+) turn out when CN(CCCN1CCN(C(=O)CN2CCN(CC(=O)[O-])CCN(CC(=O)[O-])CCN(CC(=O)[O-])CC2)CC1)c1ccc2nccc(C(=O)NCC(=O)N3CC(F)(F)C[C@H]3C#N)c2c1.[68Ga+3] [^68Ga-FAPI-46, [^68Ga]Ga-FAPI-46] was run?
**A.** The value was 0.25 ± 0.29.

**Q.** And the k1 (tumor FAP+)?
**A.** Its k1 is 0.042 ± 0.012.

**Q.** What about the k2 (tumor FAP+) of the same compound?
**A.** The k2 was 0.298 ± 0.038.

**Q.** What about the k3 (tumor FAP+) of the same compound?
**A.** The k3 was 0.029 ± 0.024.

**Q.** And the k3/k4 (tumor FAP+)?
**A.** Its k3/k4 is 1.77 ± 2.74.

**Q.** And the k4 (tumor FAP+)?
**A.** Its k4 is 0.017 ± 0.011.

**Q.** What about the “Vs (distribution volume)” value (tumor FAP+, listed as FAPI-46) of the same compound?
**A.** The value was 0.246 ± 0.287.

**Q.** And the k3/k4 (tumor FAP+, listed as FAPI-46)?
**A.** Its k3/k4 is 1.770 ± 2.737.

**Q.** What about the “Vs (distribution volume)” value (tumor FAP−) of the same compound?
**A.** Its value is 0.121 ± 0.227.

**Q.** And the k1 (tumor FAP−)?
**A.** The k1 was 0.049 ± 0.003.

**Q.** And the k2 (tumor FAP−)?
**A.** The k2 was 0.323 ± 0.115.

**Q.** What about the k3 (tumor FAP−) of the same compound?
**A.** Its k3 is 0.012 ± 0.031.

**Q.** What about the k3/k4 (tumor FAP−) of the same compound?
**A.** The k3/k4 was 0.801 ± 0.908.

**Q.** And the k4 (tumor FAP−)?
**A.** The k4 was 0.015 ± 0.038.

**Q.** What about the Patlak intercept (tumor FAP+) of the same compound?
**A.** Its Patlak intercept is 0.176 ± 0.035.

**Q.** And the Patlak slope (tumor FAP+)?
**A.** Its Patlak slope is 0.002 ± 0.001.

**Q.** And the Patlak intercept (tumor FAP−)?
**A.** The Patlak intercept was 0.207 ± 0.019.

**Q.** And the Patlak slope (tumor FAP−)?
**A.** The Patlak slope was 0.000 ± 0.000.
